In general, EC50 refers to the concentration that produces a half-maximal response. Higher therefore signals weaker potency.

The source of these data is patent US9765067B2, “Thiophen-2-yl-pyridin-2-yl-1H-pyrazole-4-carboxylic acid derivatives and the use thereof as soluble guanylate cyclase activators” (Novartis AG, priority 2014, dated 2017).

This test has as its target T1, soluble guanylate cyclase (human GUCYA3/GUCYB3) overexpressed in CHO cells (Homo sapiens, UniProt Q02108+Q02153).
T1 construct: expressed in transfected cells
T1 sequence (Q02108 1-690 partner): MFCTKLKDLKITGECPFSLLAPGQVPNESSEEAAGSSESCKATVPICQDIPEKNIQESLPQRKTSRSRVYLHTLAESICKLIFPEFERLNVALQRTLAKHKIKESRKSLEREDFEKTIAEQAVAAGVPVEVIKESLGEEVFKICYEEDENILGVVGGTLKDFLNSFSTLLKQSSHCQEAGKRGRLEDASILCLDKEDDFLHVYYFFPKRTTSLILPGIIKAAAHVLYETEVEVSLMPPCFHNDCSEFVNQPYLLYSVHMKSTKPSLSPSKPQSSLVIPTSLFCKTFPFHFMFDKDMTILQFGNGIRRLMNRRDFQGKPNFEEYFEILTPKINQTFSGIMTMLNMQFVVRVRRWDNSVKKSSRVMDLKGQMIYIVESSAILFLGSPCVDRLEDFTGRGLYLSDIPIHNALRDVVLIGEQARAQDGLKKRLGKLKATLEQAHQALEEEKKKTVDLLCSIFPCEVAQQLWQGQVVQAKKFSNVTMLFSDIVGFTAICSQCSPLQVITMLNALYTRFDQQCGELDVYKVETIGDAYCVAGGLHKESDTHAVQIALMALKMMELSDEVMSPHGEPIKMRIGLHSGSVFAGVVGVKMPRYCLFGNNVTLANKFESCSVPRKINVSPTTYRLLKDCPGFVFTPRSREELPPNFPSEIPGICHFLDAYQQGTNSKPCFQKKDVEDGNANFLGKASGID
T1 sequence (Q02153 1-619): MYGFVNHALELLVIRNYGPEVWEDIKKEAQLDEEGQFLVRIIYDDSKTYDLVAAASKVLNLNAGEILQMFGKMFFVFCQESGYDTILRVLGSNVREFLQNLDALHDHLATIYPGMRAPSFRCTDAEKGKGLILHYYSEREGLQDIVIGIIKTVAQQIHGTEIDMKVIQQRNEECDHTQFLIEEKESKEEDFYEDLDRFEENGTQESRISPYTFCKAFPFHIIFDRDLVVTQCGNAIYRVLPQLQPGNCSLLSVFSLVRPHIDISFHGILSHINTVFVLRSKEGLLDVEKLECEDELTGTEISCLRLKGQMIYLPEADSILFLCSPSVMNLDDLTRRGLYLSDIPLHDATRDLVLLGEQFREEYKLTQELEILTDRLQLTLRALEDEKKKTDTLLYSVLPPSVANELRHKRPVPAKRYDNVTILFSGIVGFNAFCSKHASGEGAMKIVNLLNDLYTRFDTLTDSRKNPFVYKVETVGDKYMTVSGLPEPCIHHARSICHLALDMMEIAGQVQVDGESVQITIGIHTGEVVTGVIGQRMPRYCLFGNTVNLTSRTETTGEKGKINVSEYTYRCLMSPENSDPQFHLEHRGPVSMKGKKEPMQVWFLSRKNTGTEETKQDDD
In words: CHO cellular assay (cGMP production, HTRF). The settings on record: CHO K1 clone 8E10 overexpressing human sGC, Cisbio HTRF, 1 h room temperature, 1 mM IBMX, 20 uM ODQ, minimum quantification limit 0.5 nM. The format is cell-based. Summed up:
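Stable CHO K1 clone expressing human GUCYA3/GUCYB3. Compounds applied 1 h at room temperature in HBSS, 0.1% BSA, 1 mM IBMX, 20 uM ODQ, 0.5% DMSO. cGMP measured by HTRF and interpolated from a standard curve; EC50 from 4-parameter sigmoidal fit.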
Background: In TR-FRET formats the signal depends on donor and acceptor labels being close together.

In the case of `CCc1cc(NCc2cc(C)sc2-c2cccc(-n3ncc(C(=O)O)c3C(F)(F)F)n2)ccc1C1CCN(C(=O)C2CC2)CC1` [Example 24, 1-(6-(3-(((4-(1-(Cyclopropanecarbonyl)piperidin-4-yl)-3-ethylphenyl)amino)methyl)-5-methylthiophen-2-yl)pyridin-2-yl)-5-(trifluoromethyl)-1H-pyrazole-4-carboxylic acid], the EC50 is 0.006 µM.
`Cc1cc(CCc2ccc(C3CCN(C(=O)C4CC4)CC3)cc2C)c(-c2cccc(-n3ncc(C(=O)O)c3C(F)(F)F)n2)s1` [Example 25, 1-(6-(3-(4-(1-(Cyclopropanecarbonyl)piperidin-4-yl)-2-methylphenethyl)-5-methylthiophen-2-yl)pyridin-2-yl)-5-(trifluoromethyl)-1H-pyrazole-4-carboxylic acid] showed an EC50 of at most 0.0005 µM.
The figure for `Cc1cc(C2CCN(C(=O)C3CC3)CC2)ccc1CCc1ccsc1-c1cccc(-n2ncc(C(=O)O)c2C(F)(F)F)n1` [Example 26, 1-(6-(3-(4-(1-(Cyclopropanecarbonyl)piperidin-4-yl)-2-methylphenethyl)thiophen-2-yl)pyridin-2-yl)-5-(trifluoromethyl)-1H-pyrazole-4-carboxylic acid] is at most 0.0005 µM; for `O=C(O)c1cnn(-c2cccc(-c3sccc3CCc3ccc(C4CCN(C(=O)C5CC5)CC4)cc3)n2)c1C(F)(F)F` [Example 27, 1-(6-(3-(4-(1-(Cyclopropanecarbonyl)piperidin-4-yl)phenethyl)thiophen-2-yl)pyridin-2-yl)-5-(trifluoromethyl)-1H-pyrazole-4-carboxylic acid] it is at most 0.0005 µM; for `O=C(O)c1cnn(-c2cccc(-c3sccc3CNc3ccc(C4CCN(C(=O)C5CC5)CC4)cc3)n2)c1C(F)(F)F` [Example 28, 1-(6-(3-(((4-(1-(Cyclopropanecarbonyl)piperidin-4-yl)phenyl)amino)methyl)thiophen-2-yl)pyridin-2-yl)-5-(trifluoromethyl)-1H-pyrazole-4-carboxylic acid] it is 0.0045 µM.
The figure for `Cc1cc(C2CCN(C3COC3)CC2)ccc1OCc1ccsc1-c1cccc(-n2ncc(C(=O)O)c2C(F)(F)F)n1` [Example 29, 1-(6-(3-((2-Methyl-4-(1-(oxetan-3-yl)piperidin-4-yl)phenoxy)methyl)thiophen-2-yl)pyridin-2-yl)-5-(trifluoromethyl)-1H-pyrazole-4-carboxylic acid] is 0.067 µM; for `Cc1cc(COc2ccc(C3CCN(C(=O)C4CC4)CC3)c(CO)c2)c(-c2cccc(-n3ncc(C(=O)O)c3C(F)(F)F)n2)s1` [Example 30, 1-(6-(3-((4-(1-(Cyclopropanecarbonyl)piperidin-4-yl)-3-(hydroxymethyl)phenoxy)methyl)-5-methylthiophen-2-yl)pyridin-2-yl)-5-(trifluoromethyl)-1H-pyrazole-4-carboxylic acid] it is 0.061 µM; for `CCC(=O)N1CCC(c2ccc(COc3ccsc3-c3cccc(-n4ncc(C(=O)O)c4C(F)(F)F)n3)cc2)CC1` [Example 31, 1-(6-(3-((4-(1-Propionylpiperidin-4-yl)benzyl)oxy)thiophen-2-yl)pyridin-2-yl)-5-(trifluoromethyl)-1H-pyrazole-4-carboxylic acid] it is 0.013 µM.
The result for `Cc1cc(COc2ccc(C3CCN(C(=O)C4CC4)CC3)cc2C(F)(F)F)c(-c2cccc(-n3ncc(C(=O)O)c3C(F)(F)F)n2)s1` [Example 32, 1-(6-(3-((4-(1-(Cyclopropanecarbonyl)piperidin-4-yl)-2-(trifluoromethyl)phenoxy)methyl)-5-methylthiophen-2-yl)pyridin-2-yl)-5-(trifluoromethyl)-1H-pyrazole-4-carboxylic acid] reads at most 0.0005 µM; that for `O=C(O)c1cnn(-c2cccc(-c3sccc3COc3ccc(C4CCN(C(=O)C5CC5)CC4)cc3C(F)(F)F)n2)c1C(F)(F)F` [Example 33-1, 1-(6-(3-((4-(1-(Cyclopropanecarbonyl)piperidin-4-yl)-2-(trifluoromethyl)phenoxy)methyl)thiophen-2-yl)pyridin-2-yl)-5-(trifluoromethyl)-1H-pyrazole-4-carboxylic acid], 0.023 µM.
With `CCC(=O)N1CCC(c2ccc(OCc3ccsc3-c3cccc(-n4ncc(C(=O)O)c4C(F)(F)F)n3)c(C(F)(F)F)c2)CC1` [Example 33-2, (6-(3-((4-(1-Propionylpiperidin-4-yl)-2-(trifluoromethyl)phenoxy)methyl)thiophen-2-yl)pyridin-2-yl)-5-(trifluoromethyl)-1H-pyrazole-4-carboxylic acid], a half-maximal response (EC50) required 0.015 µM.
Take `Cc1cc(C2CCN(C(=O)C3CC3)CC2)ccc1OCc1cc(C(C)C)sc1-c1cccc(-n2ncc(C(=O)O)c2C(F)(F)F)n1` [Example 35-1, 1-(6-(3-((4-(1-(Cyclopropanecarbonyl)piperidin-4-yl)-2-methylphenoxy)methyl)-5-isopropylthiophen-2-yl)pyridin-2-yl)-5-(trifluoromethyl)-1H-pyrazole-4-carboxylic acid]: the EC50 was 0.096 µM.
`CCC(=O)N1CCC(c2ccc(OCc3cc(C(C)C)sc3-c3cccc(-n4ncc(C(=O)O)c4C(F)(F)F)n3)c(C)c2)CC1` [Example 35-2, 1-(6-(5-Isopropyl-3-((2-methyl-4-(1-propionylpiperidin-4-yl)phenoxy)methyl)thiophen-2-yl)pyridin-2-yl)-5-(trifluoromethyl)-1H-pyrazole-4-carboxylic acid] yielded an EC50 of 0.678 µM.
The figure for `CCCc1cc(COc2ccc(C3CCN(C(=O)CC)CC3)cc2C)c(-c2cccc(-n3ncc(C(=O)O)c3C(F)(F)F)n2)s1` [Example 35-3, 1-(6-(3-((2-Methyl-4-(1-propionylpiperidin-4-yl)phenoxy)methyl)-5-propylthiophen-2-yl)pyridin-2-yl)-5-(trifluoromethyl)-1H-pyrazole-4-carboxylic acid] is 0.195 µM; for `Cc1cc(COc2ccc(C3CCN(C(=O)C4CC4)CC3)c(C)c2)c(-c2cccc(-n3ncc(C(=O)O)c3C(F)(F)F)n2)s1` [Example 35-4, 1-(6-(3-((4-(1-(Cyclopropanecarbonyl)piperidin-4-yl)-3-methylphenoxy)methyl)-5-methylthiophen-2-yl)pyridin-2-yl)-5-(trifluoromethyl)-1H-pyrazole-4-carboxylic acid] it is 0.002 µM.
The result for `Cc1cc(OCc2ccsc2-c2cccc(-n3ncc(C(=O)O)c3C(F)(F)F)n2)ccc1C1CCN(C(=O)C2CC2)CC1` [Example 35-5, 1-(6-(3-((4-(1-(Cyclopropanecarbonyl)piperidin-4-yl)-3-methylphenoxy)methyl)thiophen-2-yl)pyridin-2-yl)-5-(trifluoromethyl)-1H-pyrazole-4-carboxylic acid] reads 0.003 µM; that for `CCc1cc(OCc2cc(C)sc2-c2cccc(-n3ncc(C(=O)O)c3C(F)(F)F)n2)ccc1C1CCN(C(=O)N(C)C)CC1` [Example 35-7, 1-(6-(3-((4-(1-(Dimethylcarbamoyl)piperidin-4-yl)-3-ethylphenoxy)methyl)-5-methylthiophen-2-yl)pyridin-2-yl)-5-(trifluoromethyl)-1H-pyrazole-4-carboxylic acid], at most 0.0005 µM.
The result for `CCc1cc(OCc2cc(C)sc2-c2cccc(-n3ncc(C(=O)O)c3C)n2)ccc1C1CCN(C(=O)N(C)C)CC1` [Example 35-8, 1-(6-(3-((4-(1-(Dimethylcarbamoyl)piperidin-4-yl)-3-ethylphenoxy)methyl)-5-methylthiophen-2-yl)pyridin-2-yl)-5-methyl-1H-pyrazole-4-carboxylic acid] reads at most 0.0005 µM; that for `CCc1cc(OCc2cc(C)sc2-c2cccc(-n3ncc(C(=O)O)c3CC)n2)ccc1C1CCN(C(=O)C2CC2)CC1` [Example 35-9, 1-(6-(3-((4-(1-(Cyclopropanecarbonyl)piperidin-4-yl)-3-ethylphenoxy)methyl)-5-methylthiophen-2-yl)pyridin-2-yl)-5-ethyl-1H-pyrazole-4-carboxylic acid], at most 0.0005 µM.
